One data set relates to corn seedlings. Briefly: Greenhouse study of nitrapyrin as a biostimulant, shoot dry weight (biomass) of corn seedlings. In kind it is in vivo. The following applies: applied at lower concentrations/label rates than typically employed as nitrification inhibitor (equal to or lower than 45.4 grams of nitrapyrin per acre). As to the method:
Com seeds were sown in 3-liter pots filled with a peat-vermiculite-perlite potting mix. Plants were grown for a period of 14 days in a greenhouse under standard conditions (28/32° C. night/day temperatures, 16-hour photoperiod, 55% relative humidity, 800 uMol/m2/s light intensity). Seven days after planting, treatments were applied using a 3×3 factorial treatment design (3 nitrapyrin rates×3 fertilizer treatments), with 4 biological replications per treatment combination. Plants were arranged in a completely randomized layout on the greenhouse bench. Nitrapyrin rates were: 0.0 g/plant (acetonitrile only), 0.0005 g/plant and 0.00073 g/plant, with each treatment unit dissolved in 5 mL of acetonitrile. Fertilizer treatments were: No fertilizer (water only), 15-5-15, and 6-24-6. Fertilizers were delivered at a rate of 100 ppm nitrogen, 3 times/week beginning on day 7 through day 14. Nitrapyrin treatments were given only once on day 7. Plants were monitored for signs of phytotoxicity during the experiment. On day 14, plants were harvested and dried in a forced-air oven. Dried plants were weighed individually for biomass. For results see FIG. 1.
A second experiment was performed with the same execution as described above, but with additional treatment groups and additional growing time (21 days). […]

For data set [1] the following is noted: compositions and/or formulations containing high amounts of water; cited from earlier work.

SMILES strings stand for the structures.

The text below walks through data of patent US20240172749A1, “USE OF NITRAPYRIN FOR IMPROVED PLANT GROWTH AND DEVELOPMENT” (Verdesian Life Sciences U.S., LLC, priority 2021, published 2024).

In the case of `Clc1cccc(C(Cl)(Cl)Cl)n1` [nitrapyrin, Nitrapyrin], the “biostimulant properties (improvement in plant growth and/or vigor)” value in the data set with corn seedlings is recorded as “can exhibit biostimulant properties”. Besides, in data set [1], the degradation of nitrapyrin entry is recorded as “rapid degradation”.
